# Read-outs that look alike come from different tables or passages of the source.
# Legend:
# [1] = target: human muscarinic M3 receptor (Homo sapiens, UniProt P20309); test: Alphascreen Surefire phospho-ERK1/2 functional assay, M3; settings: for Emax: CHO; for EC50: pEC50 M3, CHO cells stably expressing human M3
# [2] = target: T1, human muscarinic M1 receptor (Homo sapiens, UniProt P11229); test: Alphascreen Surefire phospho-ERK1/2 functional assay, M1; type: cell-based; settings: for EC50: phospho-ERK1/2, * = variable results, read-out: pEC50 M1 (converted); for Emax: CHO
# T1 sequence (P11229 1-460): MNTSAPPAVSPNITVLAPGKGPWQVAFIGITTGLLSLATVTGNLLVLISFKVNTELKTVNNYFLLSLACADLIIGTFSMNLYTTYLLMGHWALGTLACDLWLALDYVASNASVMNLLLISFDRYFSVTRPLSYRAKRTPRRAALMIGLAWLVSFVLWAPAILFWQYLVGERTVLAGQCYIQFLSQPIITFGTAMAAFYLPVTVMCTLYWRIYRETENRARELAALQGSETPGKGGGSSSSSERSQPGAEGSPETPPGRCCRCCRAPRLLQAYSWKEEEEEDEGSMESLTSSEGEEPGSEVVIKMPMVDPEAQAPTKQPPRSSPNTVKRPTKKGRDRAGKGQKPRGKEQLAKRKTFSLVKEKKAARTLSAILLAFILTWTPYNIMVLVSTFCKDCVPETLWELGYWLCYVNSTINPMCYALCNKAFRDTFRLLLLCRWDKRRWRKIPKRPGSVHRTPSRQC
# [3] = test system: scopolamine-induced amnesia; test: Passive avoidance task, scopolamine-induced amnesia; type: in vivo
# Experimental: Studies were carried out as described previously by Foley et al., (2004) Neuropsychopharmacology. In the passive avoidance task scopolamine administration (1 mg/kg, i.p.) at 6 hours following training rendered animals amnesic of the paradigm. A dose range of 3, 10, and 30 mg/kg (po) free base, administered 90 minutes prior to the training period via oral gavage, was examined.
# [4] = target: T2, human muscarinic M4 receptor (Homo sapiens, UniProt P08173); test: Alphascreen Surefire phospho-ERK1/2 functional assay, M4; type: cell-based; settings: for EC50: phospho-ERK1/2, * = variable results, read-out: pEC50 M4 (converted); for Emax: CHO
# T2 construct: expressed in transfected cells
# T2 sequence (P08173 1-479): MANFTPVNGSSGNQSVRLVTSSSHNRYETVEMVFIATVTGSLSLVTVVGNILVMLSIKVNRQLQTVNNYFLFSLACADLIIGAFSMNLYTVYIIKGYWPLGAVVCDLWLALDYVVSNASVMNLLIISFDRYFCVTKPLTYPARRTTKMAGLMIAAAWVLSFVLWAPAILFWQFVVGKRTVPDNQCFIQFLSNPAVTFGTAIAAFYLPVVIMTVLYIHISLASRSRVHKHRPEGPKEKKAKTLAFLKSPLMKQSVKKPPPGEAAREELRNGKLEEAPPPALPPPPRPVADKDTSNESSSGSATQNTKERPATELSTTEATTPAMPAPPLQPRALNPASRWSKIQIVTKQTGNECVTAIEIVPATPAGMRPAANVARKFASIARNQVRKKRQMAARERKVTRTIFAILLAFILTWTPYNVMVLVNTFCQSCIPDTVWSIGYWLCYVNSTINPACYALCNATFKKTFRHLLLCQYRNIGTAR
# [5] = target: T3, human muscarinic M2 receptor (Homo sapiens, UniProt P08172); test: Alphascreen Surefire phospho-ERK1/2 functional assay, M2; settings: for Emax: CHO
# T3 sequence (P08172 1-466): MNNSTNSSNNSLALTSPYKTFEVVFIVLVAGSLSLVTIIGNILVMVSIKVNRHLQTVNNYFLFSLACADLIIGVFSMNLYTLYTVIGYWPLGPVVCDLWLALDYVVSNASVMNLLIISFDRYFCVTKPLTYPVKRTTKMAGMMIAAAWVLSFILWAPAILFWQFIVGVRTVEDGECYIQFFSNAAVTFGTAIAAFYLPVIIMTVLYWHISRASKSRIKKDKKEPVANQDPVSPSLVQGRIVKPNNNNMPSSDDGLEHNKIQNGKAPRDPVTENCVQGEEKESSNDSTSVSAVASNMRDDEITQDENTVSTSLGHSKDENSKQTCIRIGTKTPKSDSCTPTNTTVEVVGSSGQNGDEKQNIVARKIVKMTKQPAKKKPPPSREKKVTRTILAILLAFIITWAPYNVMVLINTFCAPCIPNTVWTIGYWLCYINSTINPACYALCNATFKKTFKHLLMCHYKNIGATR
# [6] = phospho-ERK1/2, * = variable results
# [7] = CHO cells stably expressing human M1
# [8] = CHO cells stably expressing human M4
# [9] = read-out: % Emax cf. ACh, M3, CHO cells stably expressing human M3, relative to ACh
# [10] = read-out: % Emax cf. ACh, M1, CHO cells stably expressing human M1, relative to ACh
# [11] = read-out: % Emax cf. ACh, M4, CHO cells stably expressing human M4, relative to ACh
# [12] = read-out: % Emax cf. ACh, M2, CHO cells stably expressing human M2, relative to ACh
# Chain of human muscarinic M3 receptor (P20309 whole entry): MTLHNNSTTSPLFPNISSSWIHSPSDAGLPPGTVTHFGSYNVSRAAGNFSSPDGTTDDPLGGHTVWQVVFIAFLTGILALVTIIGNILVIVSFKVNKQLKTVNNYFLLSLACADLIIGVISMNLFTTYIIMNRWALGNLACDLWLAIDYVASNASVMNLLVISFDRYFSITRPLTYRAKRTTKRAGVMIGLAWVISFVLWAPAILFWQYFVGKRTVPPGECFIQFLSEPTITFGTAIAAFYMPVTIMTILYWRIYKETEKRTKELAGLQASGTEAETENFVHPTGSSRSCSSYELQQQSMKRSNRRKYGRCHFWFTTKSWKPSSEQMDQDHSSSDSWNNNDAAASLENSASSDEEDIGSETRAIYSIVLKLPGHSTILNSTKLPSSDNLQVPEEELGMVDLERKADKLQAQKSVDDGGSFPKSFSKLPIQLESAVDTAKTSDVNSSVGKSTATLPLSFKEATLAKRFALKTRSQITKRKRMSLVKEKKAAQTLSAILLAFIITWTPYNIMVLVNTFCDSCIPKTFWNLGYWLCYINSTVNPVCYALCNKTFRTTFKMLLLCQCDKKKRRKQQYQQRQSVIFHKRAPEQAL
"EC50 [1, 6] [nM]","EC50 [2, 7] [nM]","EC50 [4, 8] [nM]","Emax [1, 9] [%]","Emax [2, 10] [%]","Emax [4, 11] [%]",EC50 [5] [nM],"Emax [5, 12] [%]","pEC50 M3 ([1]; CHO cells stably expressing human M3, phospho-ERK1/2, * = variable results)","% Emax cf. ACh, M3 ([1]; CHO cells stably expressing human M3, relative to ACh) [%]","% Emax cf. ACh, M1 ([2]; CHO cells stably expressing human M1, relative to ACh) [%]","% Emax cf. ACh, M4 ([4]; CHO cells stably expressing human M4, relative to ACh) [%]","pEC50 M2 ([5]; CHO cells stably expressing human M2, phospho-ERK1/2, * = variable results)","% Emax cf. ACh, M2 ([5]; CHO cells stably expressing human M2, relative to ACh) [%]",SMILES,"Emax ([1]; read-out: % Emax cf. ACh, M3) [%]","Emax ([2]; read-out: % Emax cf. ACh, M1) [%]","reversal of scopolamine-induced amnesia ([3]; 3, 10 and 30 mg/kg po)","ED50 ([3]; po, 90 minutes prior to training, scopolamine 1 mg/kg i.p. 6 hours following training, read-out: approximate ED50, reversal of scopolamine-induced amnesia) [mg/kg]","Emax ([4]; read-out: % Emax cf. ACh, M4) [%]","Emax ([5]; read-out: % Emax cf. ACh, M2) [%]"
> 20000,631,7.94,2,46,113,> 20000,4,,,,,,,"CCOC(=O)N1CCC2(CC(N3CCC([C@@H]4CCCN4C(=O)N(C)C)CC3)C2)C1 (single isomer, unassigned) [2-21 Isomer 2]",,,,,,
> 20000,316,50.1,3,102,110,> 20000,2,,,,,,,"CCOC(=O)N1CCC2(CC(N3CCC(C4CCCN4C(=O)C(F)(F)F)CC3)C2)C1 (single isomer, unassigned) [2-4 Isomer 2, ethyl 2-{4-[1-(trifluoroacetyl)pyrrolidin-2-yl]piperidin-1-yl}-6-azaspiro[3.4]octane-6-carboxylate]",,,,,,

# Continued, compound first:
SMILES,"EC50 [1, 6] [nM]","EC50 [2, 7] [nM]","EC50 [4, 8] [nM]","Emax [1, 9] [%]","Emax [2, 10] [%]","Emax [4, 11] [%]",EC50 [5] [nM],"Emax [5, 12] [%]","pEC50 M3 ([1]; CHO cells stably expressing human M3, phospho-ERK1/2, * = variable results)","% Emax cf. ACh, M3 ([1]; CHO cells stably expressing human M3, relative to ACh) [%]","% Emax cf. ACh, M1 ([2]; CHO cells stably expressing human M1, relative to ACh) [%]","% Emax cf. ACh, M4 ([4]; CHO cells stably expressing human M4, relative to ACh) [%]","pEC50 M2 ([5]; CHO cells stably expressing human M2, phospho-ERK1/2, * = variable results)","% Emax cf. ACh, M2 ([5]; CHO cells stably expressing human M2, relative to ACh) [%]","Emax ([1]; read-out: % Emax cf. ACh, M3) [%]","Emax ([2]; read-out: % Emax cf. ACh, M1) [%]","reversal of scopolamine-induced amnesia ([3]; 3, 10 and 30 mg/kg po)","ED50 ([3]; po, 90 minutes prior to training, scopolamine 1 mg/kg i.p. 6 hours following training, read-out: approximate ED50, reversal of scopolamine-induced amnesia) [mg/kg]","Emax ([4]; read-out: % Emax cf. ACh, M4) [%]","Emax ([5]; read-out: % Emax cf. ACh, M2) [%]"
"CCOC(=O)N1CCC2(CC(N3CCC(n4cccn4)CC3)C2)C1 (single isomer, unassigned) [1-33 Isomer 2, ethyl 2-[4-(1H-pyrazol-1-yl)piperidin-1-yl]-6-azaspira[3.4]octane-6-carboxylate]",> 20000,25.1,3.98,,,,,,,,,,,,7,11,reverse scopolamine-induced amnesia of the paradigm in a dose-dependent manner,~10,118,49
"CCOC(=O)N1CCC2(CC(N3CCC(c4ccn[nH]4)CC3)C2)C1 (single isomer, unassigned) [1-18 Isomer 2, ethyl 2-[4-(1H-pyrazol-5-yl)piperidin-1-yl]-6-azaspiro[3.4]octane-6-carboxylate]",> 20000,126,50.1,56,65,89,> 20000,3,,,,,,,,,,,,
"CCOC(=O)N1CCC2(CC(N3CCC(C4c5ccccc5CN4C(=O)NC)CC3)C2)C1 (single isomer, unassigned) [2-76 Isomer 2, ethyl 2-(4-(2-(methylcarbamoyl)-isoindolin-1-yl)piperidin-1-yl)-6-azaspiro[3.4]octane-6-carboxylate]",,50.1,12.6,,,,,,< 4.7,14,88,107,< 4.7,16,,,,,,
